This is an account of results in US20250353856A1, “COMPOUND ACTIVE AS INHIBITOR OF COLONY STIMULATION FACTOR-1 RECEPTOR (CSF-1R)” (Norwegian University of Science and Technology (NTNU), priority 2022, published 2025).

In one experiment the target is CSF1R enzyme (Homo sapiens (Human), UniProt P07333). Kind of experiment: CSF1R enzymatic inhibitory assay (Z'-LYTE, FRET). The class given is biochemical. Conditions: Z'-LYTE assay platform, 10-point titrations in duplicates, ATP equal to Km.
In experiment [1] the target is CSF1R in bone-marrow derived macrophages from mice (Mus musculus (Mouse), UniProt P09581). Kind of experiment: Effect of CSF1R inhibitors on MAPK signalling in mouse bone-marrow derived macrophages. The conditions noted are these: for BMDM fold relative to PLX3397: Fold change: IC50 inhibitor/IC50 PLX3397, mouse BMDM. The class given is cell-based.
Chain of CSF1R in bone-marrow derived macrophages from mice (P09581 20-977): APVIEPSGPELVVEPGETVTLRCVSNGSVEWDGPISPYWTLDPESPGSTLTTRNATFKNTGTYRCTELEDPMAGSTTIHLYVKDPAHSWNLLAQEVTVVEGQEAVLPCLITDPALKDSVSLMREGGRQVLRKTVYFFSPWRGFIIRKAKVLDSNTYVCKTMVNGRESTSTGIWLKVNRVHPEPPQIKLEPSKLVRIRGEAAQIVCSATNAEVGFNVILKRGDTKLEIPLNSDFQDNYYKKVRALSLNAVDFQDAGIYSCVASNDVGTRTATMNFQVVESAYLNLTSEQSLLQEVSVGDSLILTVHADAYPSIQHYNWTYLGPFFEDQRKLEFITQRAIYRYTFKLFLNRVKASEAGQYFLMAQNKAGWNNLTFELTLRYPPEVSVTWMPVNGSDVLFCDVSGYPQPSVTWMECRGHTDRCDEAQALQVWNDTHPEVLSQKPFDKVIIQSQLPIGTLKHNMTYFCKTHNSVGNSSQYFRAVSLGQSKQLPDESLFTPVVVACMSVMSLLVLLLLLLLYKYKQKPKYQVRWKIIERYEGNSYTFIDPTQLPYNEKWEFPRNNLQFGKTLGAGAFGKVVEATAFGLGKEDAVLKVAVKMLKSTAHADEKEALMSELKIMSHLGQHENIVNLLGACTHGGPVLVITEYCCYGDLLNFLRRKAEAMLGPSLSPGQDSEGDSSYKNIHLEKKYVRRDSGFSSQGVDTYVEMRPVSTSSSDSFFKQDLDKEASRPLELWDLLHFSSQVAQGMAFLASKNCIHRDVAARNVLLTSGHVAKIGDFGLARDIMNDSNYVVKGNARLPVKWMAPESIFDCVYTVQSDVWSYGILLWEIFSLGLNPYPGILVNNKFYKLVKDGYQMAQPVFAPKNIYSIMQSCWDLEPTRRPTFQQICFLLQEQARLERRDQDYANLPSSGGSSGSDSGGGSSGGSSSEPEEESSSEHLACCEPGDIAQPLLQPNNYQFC

Where two headings read alike, the source gives them in different places. Bounds are passed on as bounds.

Chain of CSF1R enzyme (P07333 20-972): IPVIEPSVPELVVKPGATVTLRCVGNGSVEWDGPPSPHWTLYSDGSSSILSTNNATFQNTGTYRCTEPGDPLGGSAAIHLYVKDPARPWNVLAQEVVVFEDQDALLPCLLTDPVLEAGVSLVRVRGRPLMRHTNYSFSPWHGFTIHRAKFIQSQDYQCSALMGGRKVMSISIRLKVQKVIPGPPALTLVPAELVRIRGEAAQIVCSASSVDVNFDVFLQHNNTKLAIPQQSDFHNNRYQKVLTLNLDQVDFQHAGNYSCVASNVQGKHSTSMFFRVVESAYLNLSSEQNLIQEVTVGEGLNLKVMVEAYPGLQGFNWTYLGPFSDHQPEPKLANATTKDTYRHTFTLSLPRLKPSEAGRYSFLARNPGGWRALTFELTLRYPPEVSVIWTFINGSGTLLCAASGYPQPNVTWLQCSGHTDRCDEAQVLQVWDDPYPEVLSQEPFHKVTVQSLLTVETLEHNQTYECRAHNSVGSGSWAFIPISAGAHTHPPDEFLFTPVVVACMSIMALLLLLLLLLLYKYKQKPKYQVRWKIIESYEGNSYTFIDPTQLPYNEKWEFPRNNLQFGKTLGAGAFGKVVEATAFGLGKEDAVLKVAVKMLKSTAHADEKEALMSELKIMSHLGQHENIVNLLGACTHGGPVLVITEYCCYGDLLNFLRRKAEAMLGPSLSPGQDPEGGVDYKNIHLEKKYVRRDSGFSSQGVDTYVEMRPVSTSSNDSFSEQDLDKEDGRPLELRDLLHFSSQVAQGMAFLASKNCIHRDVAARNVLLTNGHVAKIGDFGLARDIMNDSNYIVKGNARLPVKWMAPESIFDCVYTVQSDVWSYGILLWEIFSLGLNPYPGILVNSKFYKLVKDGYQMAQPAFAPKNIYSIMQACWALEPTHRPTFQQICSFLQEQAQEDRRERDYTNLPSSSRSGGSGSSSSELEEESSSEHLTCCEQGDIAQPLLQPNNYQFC

By IC50 is commonly meant the concentration that inhibits the measured activity by half. In the case of `OCc1ccc(-c2cc3c(Cc4ccccc4)ncnc3[nH]2)cc1` [Compound 5a, (4-(4-Benzyl-7H-pyrrolo[2,3-d]pyrimidin-6-yl)phenyl)methanol], the IC50 on CSF1R enzyme was determined as 1.3 nM; in experiment [1] (read-out: BMDM IC50), 130 nM. For the same compound, the “BMDM fold relative to PLX3397” value in experiment [1] stood at 1 fold.

For the compound `CS(=O)(=O)Nc1ccc(-c2cc3c(Cc4ccccc4)ncnc3[nH]2)cc1` [Compound 14, N-(4-(4-Benzyl-7H-pyrrolo[2,3-d]pyrimidin-6-yl)phenyl)methanesulfonamide], at CSF1R enzyme, the IC50 was 2.1 nM.

`CCC(c1ccccc1)c1ncnc2[nH]c(-c3ccc(CO)cc3)cc12` (centres unmarked) [Compound 5j, (4-(4-(1-Phenylpropyl)-7H-pyrrolo[2,3-d]pyrimidin-6-yl)phenyl)methanol]: the IC50 against CSF1R enzyme is 29 nM; in experiment [1] (read-out: BMDM IC50), above 500 nM. Besides, the “BMDM fold relative to PLX3397” value in experiment [1] is listed as above 5 fold.

For the compound `OCc1ccc(-c2cc3c(Cc4cccc(F)c4)ncnc3[nH]2)cc1` [Compound 5c, (4-(4-(3-Fluorobenzyl)-7H-pyrrolo[2,3-d]pyrimidin-6-yl)phenyl)methanol], the figures for the half-inhibitory concentration (IC50) (on CSF1R enzyme; in experiment [1] (read-out: BMDM IC50)) were 1.9 nM and above 500 nM, respectively. In addition, the “BMDM fold relative to PLX3397” value in experiment [1] is reported as above 5 fold.

`CC(C)n1cc(-c2cc3c(Cc4ccccc4)ncnc3[nH]2)cn1` [Compound 17, 4-Benzyl-6-(1-isopropyl-1H-pyrazol-4-yl)-7H-pyrrolo[2,3-d]pyrimidine] displayed an IC50 against CSF1R enzyme of 2 nM.

Regarding `OCc1ccc(-c2cc3c(Cc4ccc(F)cc4)ncnc3[nH]2)cc1` [Compound 5d, (4-(4-(4-Fluorobenzyl)-7H-pyrrolo[2,3-d]pyrimidin-6-yl)phenyl)methanol], the IC50 against CSF1R enzyme came out at 3.1 nM; in experiment [1] (read-out: BMDM IC50), 320 nM. Moreover, the “BMDM fold relative to PLX3397” value in experiment [1] is reported as 4.1 fold.

Consider `Cc1ccc(Cc2ncnc3[nH]c(-c4ccc(CO)cc4)cc23)cc1` [Compound 5e, (4-(4-(4-Methylbenzyl)-7H-pyrrolo[2,3-d]pyrimidin-6-yl)phenyl)methanol], for which the 50% inhibitory concentration (IC50) against CSF1R enzyme was 1 nM; in experiment [1] (read-out: BMDM IC50) it was above 300 nM. The “BMDM fold relative to PLX3397” value in experiment [1] is recorded as above 3 fold.

Regarding `OCc1ccc(-c2cc3c(Cc4ccccc4F)ncnc3[nH]2)cc1` [Compound 5b, (4-(4-(2-Fluorobenzyl)-7H-pyrrolo[2,3-d]pyrimidin-6-yl)phenyl)methanol], the IC50 amounted to 0.7 nM on CSF1R enzyme and 487 nM in experiment [1] (read-out: BMDM IC50). Besides, the “BMDM fold relative to PLX3397” value in experiment [1] was found to be 5 fold.

On to `CC(c1ccccc1)c1ncnc2[nH]c(-c3ccc(CO)cc3)cc12` (centres unmarked) [Compound 5i, (4-(4-(1-Phenylethyl)-7H-pyrrolo[2,3-d]pyrimidin-6-yl)phenyl)methanol], for which the IC50 against CSF1R enzyme was 3.8 nM; in experiment [1] (read-out: BMDM IC50), above 500 nM. Besides, in experiment [1], the “BMDM fold relative to PLX3397” value is above 5 fold.

`Cc1nn(C)cc1-c1cc2c(Cc3ccccc3)ncnc2[nH]1` [Compound 18, 4-Benzyl-6-(1,3-dimethyl-1H-pyrazol-4-yl)-7H-pyrrolo[2,3-d]pyrimidine] had a concentration for half-maximal inhibition (IC50) at CSF1R enzyme of 0.4 nM.

In turn, `COc1ccc(-c2cc3c(Cc4ccccc4)ncnc3[nH]2)cc1` [Compound 10, 4-Benzyl-6-(4-methoxyphenyl)-7H-pyrrolo[2,3-d]pyrimidine] displayed a 50% inhibitory concentration (IC50) on CSF1R enzyme of 11 nM.

Consider `CP(C)(=O)c1ccc(-c2cc3c(Cc4ccccc4)ncnc3[nH]2)cc1` [Compound 19, (4-(4-Benzyl-7H-pyrrolo[2,3-d]pyrimidin-6-yl)phenyl)dimethylphosphine oxide], for which, at CSF1R enzyme, the IC50 stood at 1.5 nM.

`CC(C)c1ccc(Cc2ncnc3[nH]c(-c4ccc(CO)cc4)cc23)cc1` [Compound 5f, (4-(4-(4-Isopropylbenzyl)-7H-pyrrolo[2,3-d]pyrimidin-6-yl)phenyl)methanol]: the concentration for half-maximal inhibition (IC50) against CSF1R enzyme turned out to be 0.6 nM; in experiment [1] (read-out: BMDM IC50), 71 nM. In addition, the “BMDM fold relative to PLX3397” value in experiment [1] is 0.8 fold.

As for `CC(C)(C)c1ccc(Cc2ncnc3[nH]c(-c4ccc(CO)cc4)cc23)cc1` [Compound 5g, (4-(4-(4-(tert-Butyl)benzyl)-7H-pyrrolo[2,3-d]pyrimidin-6-yl)phenyl)methanol], the IC50 was 1.6 nM at CSF1R enzyme and 174 nM in experiment [1] (read-out: BMDM IC50). The “BMDM fold relative to PLX3397” value in experiment [1] is listed as 1.7 fold.

`FC(F)(F)c1ccc(CNc2ccc(Cc3c[nH]c4ncc(Cl)cc34)cn2)cn1` [PLX3397, reference compound] displayed an IC50 in experiment [1] of 70 to 150 nM.

As to `OCc1ccc(-c2cc3c(Oc4ccccc4)ncnc3[nH]2)cc1` [Compound 9, (4-(4-Phenoxy-7H-pyrrolo[2,3-d]pyrimidin-6-yl)phenyl)methanol], the half-inhibitory concentration (IC50) against CSF1R enzyme turned out to be 1.5 nM; in experiment [1] (read-out: BMDM IC50), 107 nM. Further, the “BMDM fold relative to PLX3397” value in experiment [1] is on record as 1 fold.

For `OCc1ccc(-c2cc3c(C(F)c4ccccc4)ncnc3[nH]2)cc1` (centres unmarked) [Compound 5k, (4-(4-(Fluoro(phenyl)methyl)-7H-pyrrolo[2,3-d]pyrimidin-6-yl)phenyl)methanol], the IC50 at CSF1R enzyme came to 2.7 nM; in experiment [1] (read-out: BMDM IC50), 100 nM. In addition, the “BMDM fold relative to PLX3397” value in experiment [1] is recorded as 1.3 fold.

`c1ccc(Cc2ncnc3[nH]c(-c4ccccc4)cc23)cc1` [Compound 15, 4-Benzyl-6-phenyl-7H-pyrrolo[2,3-d]pyrimidine] registered an IC50 on CSF1R enzyme of 7.2 nM.

For `OCc1ccc(-c2cc3c(Cc4ccc(C(F)(F)F)cc4)ncnc3[nH]2)cc1` [Compound 5h, (4-(4-(4-(Trifluoromethyl)benzyl)-7H-pyrrolo[2,3-d]pyrimidin-6-yl)phenyl)methanol], the IC50 against CSF1R enzyme was 3.6 nM; in experiment [1] (read-out: BMDM IC50), above 500 nM. Further, the “BMDM fold relative to PLX3397” value in experiment [1] is reported as above 5 fold.

With `CNS(=O)(=O)c1ccc(-c2cc3c(Cc4ccccc4)ncnc3[nH]2)cc1` [Compound 16, 4-(4-Benzyl-7H-pyrrolo[2,3-d]pyrimidin-6-yl)-N-methylbenzenesulfonamide], the IC50 at CSF1R enzyme is 1.7 nM.
